Measured values from US9144239B2, “Macrocyclic picolinamides as fungicides” (DOW AGROSCIENCES LLC, priority 2012, dated 2015).
Read-outs that look alike come from different tables or passages of the source.

Columns and labels:
[1] = tested on: Mycosphaerella graminicola; anamorph: Septoria tritici; assay: Fungicidal activity: leaf blotch of wheat (SEPTTR), wheat seedlings; type: in vivo; details: Zymoseptoria tritici
Method: Evaluation of Fungicidal Activity: Leaf Blotch of Wheat (Mycosphaerella Graminicola; Anamorph: Septoria tritici; Bayer Code […]) Technical grades of materials were dissolved in acetone, which were then mixed with nine volumes of water containing 110 ppm Triton X-100. The fungicide solutions were applied onto wheat seedlings using an automated booth sprayer to run-off. All sprayed plants were allowed to air dry prior to further handling. Wheat plants (variety Yuma) were grown from seed in a greenhouse in 50% mineral soil/50% soil-less Metro mix until the first leaf was fully emerged, with 7-10 seedlings per pot. These plants were inoculated with an aqueous spore suspension of Septoria tritici either prior to or after fungicide treatments. After inoculation the plants were kept in 100% relative humidity (one day in a dark dew chamber followed by two to three days in a lighted dew chamber at 20° C.) to permit spores to germinate and infect the leaf. The plants were then transferred to a greenhouse set at 20° C. for disease to develop. When disease symptoms were fully expressed on the 1st leaves of untreated plants, infection levels were assessed on a scale of 0 to 100 percent disease severity. Percent disease control was calculated using the ratio of disease severity on treated plants relative to untreated plants.

[2] = tested on: Puccinia triticina; synonym: Puccinia recondita f. sp. tritici; assay: Fungicidal activity: wheat brown rust (PUCCRT), wheat seedlings; type: in vivo
Method: Technical grades of materials were dissolved in acetone, which were then mixed with nine volumes of water containing 110 ppm Triton X-100. The fungicide solutions were applied onto wheat seedlings using an automated booth sprayer to run-off. All sprayed plants were allowed to air dry prior to further handling. Wheat plants (variety Yuma) were grown from seed in a greenhouse in 50% mineral soil/50% soil-less Metro mix until the first leaf was fully emerged, with 7-10 seedlings per pot. These plants were inoculated with an aqueous spore suspension of Septoria tritici either prior to or after fungicide treatments. After inoculation the plants were kept in 100% relative humidity (one day in a dark dew chamber followed by two to three days in a lighted dew chamber at 20° C.) to permit spores to germinate and infect the leaf. The plants were then transferred to a greenhouse set at 20° C. for disease to develop. When disease symptoms were fully expressed on the 1st leaves of untreated plants, infection levels were assessed on a scale of 0 to 100 percent disease severity. Percent disease control was calculated using the ratio of disease severity on treated plants relative to untreated plants. Evaluation of Fungicidal Activity: Wheat Brown Rust (Puccinia […]; Synonym: Puccinia recondita f. Sp. Tritici; Bayer Code PUCCRT) Wheat plants (variety Yuma) were grown from seed in a greenhouse in 50% mineral soil/50% soil-less Metro mix until the first leaf was fully emerged, with 7-10 seedlings per pot. These plants were inoculated with an aqueous spore suspension of Puccinia triticina either prior to or after fungicide treatments. After inoculation the plants were kept in a dark dew room at 22° C. with 100% relative humidity overnight to permit spores to germinate and infect the leaf. The plants were then transferred to a greenhouse set at 24° C. for disease to develop. Fungicide formulation, application and disease assessment followed the procedures as described in the Example A.

[3] = 24 h, 100 ppm, 1 Day Protectant, wheat, read-out: Disease Control SEPTTR 1DP
[4] = 72 h, 100 ppm, 3 Day Curative, wheat, read-out: Disease Control SEPTTR 3DC
[5] = 24 h, 100 ppm, 1 Day Protectant, wheat, read-out: Disease Control PUCCRT 1DP
[6] = 72 h, 100 ppm, 3 Day Curative, wheat, read-out: Disease Control PUCCRT 3DC

Row | Compound | pest or weed control at 100 ppm [1, 3] | pest or weed control at 100 ppm [1, 4] | pest or weed control at 100 ppm [2, 5] | pest or weed control at 100 ppm [2, 6] | pest or weed control at 100 ppm ([1]; 24 h, read-out: Disease Control SEPTTR 1DP) | pest or weed control at 100 ppm ([1]; 72 h, read-out: Disease Control SEPTTR 3DC) | pest or weed control at 100 ppm ([2]; 24 h, read-out: Disease Control PUCCRT 1DP) | pest or weed control at 100 ppm ([2]; 72 h, read-out: Disease Control PUCCRT 3DC)
1 | CCCCO[C@H]1COC[C@H](NC(=O)c2nccc(OC)c2O)C(=O)O[C@@H](C)[C@@H]1O [Compound 42, N-((3S,7S,8S,9S)-7-butoxy-8-hydroxy-9-methyl-2-oxo-1,5-dioxonan-3-yl)-3-hydroxy-4-methoxypicolinamide] | 0 to 80% | 0 to 80% | 80 to 100% | 80 to 100% |  |  |  | 
2 | COc1ccnc(C(=O)N[C@@H]2COC[C@@H](OCc3ccccc3)[C@H](OCc3ccccc3)[C@H](C)OC2=O)c1OCOC(C)=O [Compound 41] | 0 to 80% | 0 to 80% | 0 to 80% |  |  |  |  | 
3 | CCCCO[C@H]1COC[C@H](NC(=O)c2nccc(OC)c2O)C(=O)O[C@@H](C)[C@@H]1OC(=O)C(C)C [Compound 46, (3S,6S,7S,8S)-8-butoxy-3-(3-hydroxy-4-methoxypicolinamido)-6-methyl-4-oxo-1,5-dioxonan-7-yl isobutyrate] |  |  |  |  | 80 to 100% | 80 to 100% | 80 to 100% | 80 to 100%
4 | CCCO[C@H]1[C@H](C)OC(=O)[C@@H](NC(=O)c2nccc(OC)c2O)COC[C@@H]1Oc1ccccc1 [Compound 203] | 80 to 100% | 80 to 100% | 80 to 100% | 80 to 100% |  |  |  | 
5 | CCCO[C@H]1[C@H](C)OC(=O)[C@@H](NC(=O)c2nccc(OC)c2O)COC[C@@H]1Oc1ccc(C(F)(F)F)cc1 [Compound 197] |  |  | 80 to 100% |  |  |  |  | 
6 | CC[C@H]1OC(=O)[C@@H](NC(=O)c2nccc(OC)c2O)COC[C@H](OCC(C)C)[C@H]1OCC(C)C [Compound 19, N-((3S,7S,8S,9R)-9-ethyl-7,8-diisobutoxy-2-oxo-1,5-dioxonan-3-yl)-3-hydroxy-4-methoxypicolinamide] | 0 to 80% | 0 to 80% |  |  |  |  |  | 
7 | COc1ccnc(C(=O)N[C@H]2COC[C@H](Oc3ccccc3)[C@@H](OCC=C3CCCCC3)[C@H](C)OC2=O)c1O [Compound 212] | 80 to 100% | 0 to 80% | 80 to 100% | 0 to 80% |  |  |  | 
8 | CCCCO[C@H]1COC[C@H](NC(=O)c2nccc(OC)c2OCOC(C)=O)C(=O)O[C@@H](C)[C@@H]1OC [Compound 37] | 0 to 80% | 0 to 80% | 80 to 100% | 80 to 100% |  |  |  | 
9 | COc1ccnc(C(=O)N[C@H]2COC[C@H](Oc3cc(C)cc(C)c3)[C@@H](Oc3cc(C)cc(C)c3)[C@H](C)OC2=O)c1O [Compound 198] | 80 to 100% |  | 0 to 80% |  |  |  |  | 
10 | COc1ccnc(C(=O)N[C@H]2COC[C@H](Oc3ccccc3)[C@@H](OC3CCCC3)[C@H](C)OC2=O)c1O [Compound 205] | 80 to 100% | 80 to 100% | 80 to 100% | 80 to 100% |  |  |  | 
11 | COc1ccc(O[C@H]2COC[C@H](NC(=O)c3nccc(OC)c3O)C(=O)O[C@@H](C)[C@@H]2OC(=O)C(C)C)cc1 [Compound 200] | 0 to 80% |  |  |  |  |  |  | 
12 | CCCCO[C@H]1COC[C@H](NC(=O)c2nccc(OC)c2OCOC(C)=O)C(=O)O[C@@H](C)[C@@H]1OCC(C)C [Compound 50] | 80 to 100% | 80 to 100% | 80 to 100% | 80 to 100% |  |  |  | 
13 | CCC(C)(C)O[C@H]1[C@H](C)OC(=O)[C@@H](NC(=O)c2nccc(OC)c2O)COC[C@@H]1OCC(C)C [Compound 79] | 80 to 100% | 80 to 100% | 80 to 100% | 80 to 100% |  |  |  | 
14 | COc1ccnc(C(=O)N[C@H]2COC[C@H](OCC(C)C)[C@@H](Oc3ccc(C(F)(F)F)cc3)[C@H](C)OC2=O)c1O [Compound 195] |  |  | 80 to 100% |  |  |  |  | 
